The target in assay [1] is T1, NAD-dependent protein deacetylase sirtuin-1 (Homo sapiens, UniProt Q96EB6).
T1 sequence (Q96EB6 whole entry): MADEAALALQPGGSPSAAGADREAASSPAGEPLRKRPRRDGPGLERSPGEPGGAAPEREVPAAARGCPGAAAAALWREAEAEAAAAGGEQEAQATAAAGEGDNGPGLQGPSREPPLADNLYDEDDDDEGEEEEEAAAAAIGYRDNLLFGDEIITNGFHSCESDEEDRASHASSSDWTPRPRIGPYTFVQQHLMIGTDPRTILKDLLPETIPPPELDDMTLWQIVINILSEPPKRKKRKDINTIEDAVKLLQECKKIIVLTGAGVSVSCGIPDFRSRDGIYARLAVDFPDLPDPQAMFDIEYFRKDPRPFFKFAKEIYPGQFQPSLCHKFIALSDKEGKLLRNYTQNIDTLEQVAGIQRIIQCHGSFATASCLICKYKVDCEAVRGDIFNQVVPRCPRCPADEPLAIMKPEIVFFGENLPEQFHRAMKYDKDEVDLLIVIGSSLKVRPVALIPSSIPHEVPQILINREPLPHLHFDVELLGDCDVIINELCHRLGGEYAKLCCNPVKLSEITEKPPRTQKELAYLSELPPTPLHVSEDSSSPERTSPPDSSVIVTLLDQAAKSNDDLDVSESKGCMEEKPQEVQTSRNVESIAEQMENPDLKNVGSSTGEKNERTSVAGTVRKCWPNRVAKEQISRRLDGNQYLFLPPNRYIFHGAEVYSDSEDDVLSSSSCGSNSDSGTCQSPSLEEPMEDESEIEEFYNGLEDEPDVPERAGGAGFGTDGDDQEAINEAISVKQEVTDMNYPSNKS
The experiment in a line: Inhibition of hexa-His-tagged recombinant human SIRT1 expressed in Escherichia coli BL21(DE3) using AMC-labeled Arg-His-Lys-Lys(ac) as substrate assessed as inhibition of deacetylation of peptide after 45 mins by fluorescence assay.

In assay [2] the target is T2, NAD-dependent protein deacetylase sirtuin-1 (Homo sapiens) (UniProt Q96EB6).
T2 sequence (whole entry): T1 sequence (Q96EB6 whole entry)
The experiment in a line: Inhibition of SIRT1-mediated deacetylation of p53 in human MCF7 cells at 1.2 to 100 uM after 6 hrs by Western blotting. Type of assay: cell-based.

In assay [3] the target is T3, NAD-dependent protein deacetylase sirtuin-1 (Homo sapiens, UniProt Q96EB6, F414A). Description: Inhibition of human SIRT1 F414A mutant expressed in Escherichia coli BL21(DE3) using AMC-labeled Arg-His-Lys-Lys(ac) as substrate assessed as inhibition of deacetylation of peptide after 45 mins by Lineweaver-Burke plot method.
Assay [4] has as its target T4, NAD-dependent protein deacetylase sirtuin-1 (Homo sapiens, UniProt Q96EB6, I347A). The experiment in a line: Inhibition of human SIRT1 I347A mutant expressed in Escherichia coli BL21(DE3) using AMC-labeled Arg-His-Lys-Lys(ac) as substrate assessed as inhibition of deacetylation of peptide after 45 mins by Lineweaver-Burke plot method.
Assay [5] has as its target T5, NAD-dependent protein deacetylase sirtuin-1 (Homo sapiens, UniProt Q96EB6, F273L). Description: Inhibition of human SIRT1 F273L mutant expressed in Escherichia coli BL21(DE3) using AMC-labeled Arg-His-Lys-Lys(ac) as substrate assessed as inhibition of deacetylation of peptide after 45 mins by fluorescence assay.
For assay [6], the target named is T1, NAD-dependent protein deacetylase sirtuin-1. The experiment in a line: Inhibition of hexa-His-tagged recombinant human SIRT1 expressed in Escherichia coli BL21(DE3) using AMC-labeled Arg-His-Lys-Lys(ac) as substrate assessed as inhibition of deacetylation of peptide after 45 mins by Lineweaver-Burke plot method.
In assay [7] the target is T3, NAD-dependent protein deacetylase sirtuin-1. The experiment in a line: Inhibition of human SIRT1 F414A mutant expressed in Escherichia coli BL21(DE3) using AMC-labeled Arg-His-Lys-Lys(ac) as substrate assessed as inhibition of deacetylation of peptide after 45 mins by fluorescence assay.
Assay [8] concerns the target T4, NAD-dependent protein deacetylase sirtuin-1. Description: Inhibition of human SIRT1 I347A mutant expressed in Escherichia coli BL21(DE3) using AMC-labeled Arg-His-Lys-Lys(ac) as substrate assessed as inhibition of deacetylation of peptide after 45 mins by fluorescence assay.
Assay [9] addresses T5, NAD-dependent protein deacetylase sirtuin-1. Description: Inhibition of human SIRT1 F273L mutant expressed in Escherichia coli BL21(DE3) using AMC-labeled Arg-His-Lys-Lys(ac) as substrate assessed as inhibition of deacetylation of peptide after 45 mins by Lineweaver-Burke plot method.

T3 sequence (Q96EB6 2-747 F414A limits assumed): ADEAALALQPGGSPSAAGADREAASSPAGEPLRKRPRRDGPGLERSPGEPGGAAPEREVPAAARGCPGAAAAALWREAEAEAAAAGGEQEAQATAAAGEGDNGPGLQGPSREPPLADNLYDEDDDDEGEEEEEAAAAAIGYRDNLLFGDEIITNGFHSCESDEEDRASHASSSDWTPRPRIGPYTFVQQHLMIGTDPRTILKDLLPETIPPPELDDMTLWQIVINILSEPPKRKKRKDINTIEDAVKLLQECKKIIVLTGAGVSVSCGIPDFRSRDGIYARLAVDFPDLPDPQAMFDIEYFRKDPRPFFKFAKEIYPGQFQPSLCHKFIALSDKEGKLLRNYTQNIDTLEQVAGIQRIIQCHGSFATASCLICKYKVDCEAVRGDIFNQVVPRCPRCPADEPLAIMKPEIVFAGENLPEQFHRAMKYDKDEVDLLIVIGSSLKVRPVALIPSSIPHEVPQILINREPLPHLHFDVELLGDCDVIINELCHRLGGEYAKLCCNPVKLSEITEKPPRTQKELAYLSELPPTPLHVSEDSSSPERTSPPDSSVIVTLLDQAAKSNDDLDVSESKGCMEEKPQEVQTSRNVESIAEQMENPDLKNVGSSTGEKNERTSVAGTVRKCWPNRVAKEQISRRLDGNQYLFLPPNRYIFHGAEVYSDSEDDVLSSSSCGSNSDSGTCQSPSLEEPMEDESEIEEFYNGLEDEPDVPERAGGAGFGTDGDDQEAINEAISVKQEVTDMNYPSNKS
T4 sequence (Q96EB6 2-747 I347A limits assumed): as the sequence (Q96EB6 2-747 F414A limits assumed) above, with I346A, A413F counted along it
T5 sequence (Q96EB6 2-747 F273L limits assumed): as the sequence (Q96EB6 2-747 F414A limits assumed) above, with F272L, A413F counted along it

As usually defined, the IC50 is the point on the concentration scale where inhibition reaches its midpoint. Take `c1coc(-c2nnc3sc(-c4cc5ccccc5o4)nn23)c1`: in assay [1], the IC50 turned out to be 20.6 µM. As to `c1cncc(-c2nn3c(-c4ccco4)nnc3s2)c1`, in assay [1], the IC50 stood at 78.8 µM. In the case of `COc1ccc(Cc2nn3c(-c4ccco4)nnc3s2)cc1OC`, the IC50 in assay [1] was 4.1 µM. In addition, the inhibition entry in assay [2] was “Dose-dependent effect”. Turning to `CCOc1ccccc1OCc1nn2c(-c3ccco3)nnc2s1`, the IC50 in assay [1] worked out at 13.7 µM. On the same count and under the same terms, the value for `c1coc(-c2nnc3sc(-c4ccc5c(c4)OCCO5)nn23)c1` was 40.7 µM. For the compound `COc1ccc(-c2nn3c(-c4ccco4)nnc3s2)cc1`, in assay [1], the concentration for half-maximal inhibition (IC50) was 46.7 µM. On to `Cc1cccc(-c2nn3c(-c4ccco4)nnc3s2)c1`, for which the IC50 in assay [1] is 7.5 µM.

As to `COc1ccccc1OCc1nn2c(-c3ccco3)nnc2s1`, the IC50 in [1] turned out to be 51.2 µM.

As for `COc1ccc(OCc2nn3c(-c4ccco4)nnc3s2)cc1`, in [1], the IC50 is 41 µM. Turning to `c1ccc(Cc2nn3c(-c4ccco4)nnc3s2)cc1`, the concentration for half-maximal inhibition (IC50) in assay [1] came out at 37.9 µM.

Consider `c1coc(-c2nnc3sc(-c4cnccn4)nn23)c1`, for which the IC50 in [1] amounted to 66.6 µM. The same measure, in the same setting: the value for `C=CCOc1ccc(-c2nn3c(-c4ccco4)nnc3s2)cc1` was 29.5 µM. Take `CC(Oc1ccccc1)c1nn2c(-c3ccco3)nnc2s1` (stereo not drawn): in assay [1], the IC50 was determined as 67.9 µM. In the case of `c1ccc(OCc2nn3c(-c4ccco4)nnc3s2)cc1`, the concentration for half-maximal inhibition (IC50) in assay [1] amounted to 61.3 µM.

Consider `COc1ccc(Cc2nn3c(-c4ccco4)nnc3s2)cc1`, for which the IC50 in [1] amounted to 76.9 µM. `Clc1ccc(Cc2nn3c(-c4ccco4)nnc3s2)cc1`: the IC50 in [1] worked out at 78 µM. For `c1coc(-c2nnc3sc(Cc4ccc5c(c4)OCCO5)nn23)c1`, the 50% inhibitory concentration (IC50) in assay [1] came to 67 µM.

As for `CCOc1cccc(-c2nn3c(-c4ccco4)nnc3s2)c1`, the IC50 in assay [1] came to 19 µM. Same read-out and setting: the figure for `CCC(c1ccccc1)c1nn2c(-c3ccco3)nnc2s1` (stereo not drawn) is 96.2 µM; for `COc1ccc(-c2nn3c(-c4ccco4)nnc3s2)cc1OC` it is 24.8 µM. As to `c1coc(-c2nnc3sc(-c4cccs4)nn23)c1`, in assay [1], the half-inhibitory concentration (IC50) worked out at 88.6 µM. As to `CCOc1ccc(-c2nn3c(-c4ccco4)nnc3s2)cc1`, in [1], the concentration for half-maximal inhibition (IC50) stood at 31.3 µM. Turning to `Fc1ccc(-c2ccc(-c3nn4c(-c5ccco5)nnc4s3)o2)cc1`, the IC50 in assay [1] was over 100 µM.

With `CCOc1cc(-c2nn3c(-c4ccco4)nnc3s2)cc(OCC)c1OCC`, the half-inhibitory concentration (IC50) in [1] was 65.7 µM.

Turning to `c1coc(-c2nn3c(-c4ccco4)nnc3s2)c1`, the IC50 in assay [1] was 22 µM.

With `Cc1ccc(OCc2nn3c(-c4ccco4)nnc3s2)cc1`, in assay [1], the concentration for half-maximal inhibition (IC50) was determined as 29.3 µM. As to `c1coc(-c2nnc3sc(C4COc5ccccc5O4)nn23)c1` (stereo not drawn), the IC50 in [1] was found to be 8.9 µM. Besides, the inhibition entry in [2] was “Dose-dependent effect”.

In the case of `COc1cccc(OCc2nn3c(-c4ccco4)nnc3s2)c1`, the IC50 in [1] worked out at 48.4 µM.

`c1ccc(CCCc2nn3c(-c4ccco4)nnc3s2)cc1`: the IC50 in assay [1] came out at 12.2 µM. With `c1coc(-c2nnc3sc(-c4ccc5c(c4)OCO5)nn23)c1`, in [1], the IC50 was 45.2 µM.

As to `C=CCOc1cccc(-c2nn3c(-c4ccco4)nnc3s2)c1`, in [1], the half-inhibitory concentration (IC50) is 18.8 µM. Same read-out and setting: the value for `Cc1ccc(OCc2nn3c(-c4ccco4)nnc3s2)cc1C` was 28.7 µM; that for `COc1cc(-c2nn3c(-c4ccco4)nnc3s2)cc(OC)c1OC` was 35.6 µM; that for `CCC(Oc1ccccc1)c1nn2c(-c3ccco3)nnc2s1` (stereo not drawn) was over 100 µM. `c1ccc(-c2nn3c(-c4ccco4)nnc3s2)cc1`: in [1], the half-maximal inhibitory concentration (IC50) came to 27.6 µM. On the same count and under the same terms, the value for `COc1cccc(-c2nn3c(-c4ccco4)nnc3s2)c1` was 20.3 µM. In the case of `Cc1ccccc1OCc1nn2c(-c3ccco3)nnc2s1`, the 50% inhibitory concentration (IC50) in assay [1] amounted to 18.7 µM. Take `c1ccc(CCc2nn3c(-c4ccco4)nnc3s2)cc1`: the IC50 in [1] stood at 47.4 µM. As for `Cc1cccc(OCc2nn3c(-c4ccco4)nnc3s2)c1`, the IC50 in assay [1] stood at 75.3 µM.

Take `c1coc(-c2nnc3sc(-c4ccncc4)nn23)c1`: the IC50 in assay [1] was found to be 49.8 µM. In the case of `Cc1ccc(-c2nn3c(-c4ccco4)nnc3s2)cc1`, in assay [1], the IC50 turned out to be 27.4 µM. One may read the Ki as a measure of affinity in units of concentration, obtained from inhibition or displacement. As to `c1ccc(-c2nn3c(-c4ccco4)nnc3s2)nc1`, the IC50 in assay [1] worked out at 3.5 µM; in assay [5], 133 µM; in [7], 44 µM; in assay [8], 87.9 µM. Besides, the Ki in assay [3] is 24.1 µM; in assay [4], 39.1 µM; in [6] it was 0.6 µM; in [9], 58.9 µM. Besides, in assay [2], the inhibition entry is “Dose-dependent effect”. For the compound `CCOc1ccccc1-c1nn2c(-c3ccco3)nnc2s1`, in assay [1], the concentration for half-maximal inhibition (IC50) is 23.6 µM.

Values taken from ChEMBL document CHEMBL3351989, “Structure-activity relationship and interaction studies of new SIRT1 inhibitors with the scaffold of 3-(furan-2-yl)-[1,2,4]triazolo[3,4-b][1,3,4]thiadiazole” (Bioorg Med Chem Lett, 2014).
